Article PMC6327852 (Journal of cellular physiology, 2016)

What was measured:
[1] = system: glucosidase I, glucosidase IIα, glucosidase IIβ; assay: Immuno-fluorescence of glucosidases in GBM12 cells; format: cell-based; settings: 2.0 μM, 6 h
NPC1 and TIM1 = format: cell-based
[2] = system: influenza A and B viruses; assay: Influenza virus-mediated cell lysis, live/dead assay in MRC5 cells; format: cell-based, human
Ebola virus = format: cell-based
HSP90, GRP78, and HSP70 = assay: Immuno-fluorescence detection of chaperones in fixed cells; settings: HuH7 and HT1080, 0–3.0 μM ± sildenafil 2 μM, 2 h
HSP27 = HSP27 (Homo sapiens, UniProt P04792); assay: Immuno-fluorescence of HSP27 expression in GBM cells; settings: GBM5, GBM6, GBM12 cells, 0–3.0 μM, 3 h
Chain of HSP27 (P04792 whole entry): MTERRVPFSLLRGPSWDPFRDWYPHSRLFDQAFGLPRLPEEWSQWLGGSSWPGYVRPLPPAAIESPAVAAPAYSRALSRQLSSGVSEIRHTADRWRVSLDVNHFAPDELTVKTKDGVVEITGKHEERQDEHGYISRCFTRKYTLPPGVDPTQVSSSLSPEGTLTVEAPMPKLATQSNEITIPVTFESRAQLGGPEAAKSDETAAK

HSP70 ATPase = HSP70 ATPase (Homo sapiens, UniProt P0DMV8); assay: ATPase activity of immuno-precipitated HSP70-GFP; settings: 30 nM - 1 μM, 30 min at 37 °C
Chain of HSP70 ATPase (P0DMV8 whole entry): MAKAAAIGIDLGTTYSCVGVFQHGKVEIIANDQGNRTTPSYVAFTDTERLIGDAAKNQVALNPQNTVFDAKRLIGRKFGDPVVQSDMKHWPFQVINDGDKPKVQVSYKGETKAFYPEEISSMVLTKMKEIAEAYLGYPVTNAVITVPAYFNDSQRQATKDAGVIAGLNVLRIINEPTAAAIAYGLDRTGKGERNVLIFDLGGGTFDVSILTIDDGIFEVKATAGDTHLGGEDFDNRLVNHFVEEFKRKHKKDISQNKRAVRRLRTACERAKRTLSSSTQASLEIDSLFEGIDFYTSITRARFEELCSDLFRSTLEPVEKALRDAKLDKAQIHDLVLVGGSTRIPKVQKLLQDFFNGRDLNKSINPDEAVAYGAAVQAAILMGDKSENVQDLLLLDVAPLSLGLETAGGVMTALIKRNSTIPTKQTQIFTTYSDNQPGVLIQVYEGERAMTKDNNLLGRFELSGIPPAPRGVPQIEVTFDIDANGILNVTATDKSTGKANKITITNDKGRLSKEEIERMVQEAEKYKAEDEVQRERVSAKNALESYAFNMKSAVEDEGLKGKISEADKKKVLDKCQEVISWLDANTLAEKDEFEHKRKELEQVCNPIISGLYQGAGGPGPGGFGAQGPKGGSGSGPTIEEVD

Junin virus (JUNV) = format: cell-based
[3] = system: rabbit hemorrhagic disease virus (RHDV); assay: Rabbit hemorrhagic fever virus studies; format: in vivo
HSP90 ATPase = assay: ATPase activity of immuno-precipitated FLAG-tagged HSP90; settings: 30 nM - 1 μM, 30 min at 37 °C
[4] = system: mTOR Serine 2448 phosphorylation; format: cell-based; settings: GBM5 cells, single agent 2.0 μM, 6 h

Structure (SMILES) | expression of glucosidase I and glucosidase IIα [1] | expression of glucosidase IIβ [1] | expression of Ebola virus receptors NPC1 and TIM1 in vitro (NPC1 and TIM1) | influenza virus-mediated cell lysis / cell killing [2] | Ebola virus replication in vitro (Ebola virus) | detection of HSP90, GRP78, and HSP70 in fixed in situ cells (HSP90, GRP78, and HSP70) | expression of HSP27 (HSP27) | effect on HSP70 ATPase activity (HSP70 ATPase) | JUNV infected cells expressing viral nucleoprotein NP (Junin virus (JUNV)) | replication of different strains of JUNV (Junin virus (JUNV)) | animals that had died ([3]; […], vehicle approximately 70% at 60 h, P < 0.05, 25 mg/kg) | liver damage assessed by H&E staining of liver sections ([3]; rabbits, RHDV, 25 mg/kg x4) | virus-induced increases in plasma ALT, LDH, and GGT levels ([3]; rabbits, RHDV, 25 mg/kg x4) | expression of virus protein VP60 mRNA in liver ([3]; rabbits, RHDV, at the time of animal nadir, quantitative RT-PCR) | effect on HSP90 ATPase activity (HSP90 ATPase) | presence in mouse brain tissue 48 h after dosing (48 h after dosing) | peak brain concentration (mouse, IV bolus 10 mg/kg) | time to cross the blood brain barrier after dosing (mouse, IV bolus 10 mg/kg) | mTOR Serine 2448 phosphorylation [4]
NCC(=O)Nc1ccc(-n2nc(C(F)(F)F)cc2-c2ccc3c(ccc4ccccc43)c2)cc1 [AR-12] | rapidly reduced the expression | did not impact | reduced the expression | reduced cell lysis / cell killing | suppressed the replication | rapid dose- and time-dependent reduction | reduced | inhibitory effects | drastically reduced | potently inhibited | approximately 30% | reduced obvious liver damage | significantly reduced | less expression | inhibitory effects | still detectable | 2 µM | ≤ 5 min | strongly reduced
CNC(=O)c1cc(Oc2ccc(NC(=O)Nc3ccc(Cl)c(C(F)(F)F)c3)cc2)ccn1 [sorafenib, reference compound] | rapidly reduced the expression | did not impact |  | reduced cell lysis / cell killing |  |  | reduced | inhibitory effects |  |  |  |  |  |  | inhibitory effects |  |  |  | 
Cc1ccc(Nc2nccc(N(C)c3ccc4c(C)n(C)nc4c3)n2)cc1S(N)(=O)=O [pazopanib] |  |  |  | reduced cell lysis / cell killing |  |  |  | inhibitory effects |  |  |  |  |  |  | inhibitory effects |  |  |  | 
